In patent US20250368648A1, “MULTI-CYCLIC IRAK AND FLT3 INHIBITING COMPOUNDS AND USES THEREOF” (CHILDREN'S HOSPITAL MEDICAL CENTER, priority 2022, published 2025):
Where two headings read alike, the source gives them in different places.

Key:
[1] = tested on: MOLM14-FLT3-ITD (D835Y) AML cells; assay: Caspase-Glo 3/7 apoptosis assay, time course; assay type: cell-based; settings: 4.12 nM added to dose level 7 of Compound 106 with dose level 7 of venetoclax
FLT3 = molecular target: T1, FLT3 (Homo sapiens, UniProt P36888); assay: RBC HotSpot Kinase Assay, FLT3; assay type: biochemical; parameters: purchased RBC (Reaction Biology) HotSpot assay; settings: HotSpot functional assay, isolated kinase enzyme, 33P-ATP
T1 sequence (P36888 27-993): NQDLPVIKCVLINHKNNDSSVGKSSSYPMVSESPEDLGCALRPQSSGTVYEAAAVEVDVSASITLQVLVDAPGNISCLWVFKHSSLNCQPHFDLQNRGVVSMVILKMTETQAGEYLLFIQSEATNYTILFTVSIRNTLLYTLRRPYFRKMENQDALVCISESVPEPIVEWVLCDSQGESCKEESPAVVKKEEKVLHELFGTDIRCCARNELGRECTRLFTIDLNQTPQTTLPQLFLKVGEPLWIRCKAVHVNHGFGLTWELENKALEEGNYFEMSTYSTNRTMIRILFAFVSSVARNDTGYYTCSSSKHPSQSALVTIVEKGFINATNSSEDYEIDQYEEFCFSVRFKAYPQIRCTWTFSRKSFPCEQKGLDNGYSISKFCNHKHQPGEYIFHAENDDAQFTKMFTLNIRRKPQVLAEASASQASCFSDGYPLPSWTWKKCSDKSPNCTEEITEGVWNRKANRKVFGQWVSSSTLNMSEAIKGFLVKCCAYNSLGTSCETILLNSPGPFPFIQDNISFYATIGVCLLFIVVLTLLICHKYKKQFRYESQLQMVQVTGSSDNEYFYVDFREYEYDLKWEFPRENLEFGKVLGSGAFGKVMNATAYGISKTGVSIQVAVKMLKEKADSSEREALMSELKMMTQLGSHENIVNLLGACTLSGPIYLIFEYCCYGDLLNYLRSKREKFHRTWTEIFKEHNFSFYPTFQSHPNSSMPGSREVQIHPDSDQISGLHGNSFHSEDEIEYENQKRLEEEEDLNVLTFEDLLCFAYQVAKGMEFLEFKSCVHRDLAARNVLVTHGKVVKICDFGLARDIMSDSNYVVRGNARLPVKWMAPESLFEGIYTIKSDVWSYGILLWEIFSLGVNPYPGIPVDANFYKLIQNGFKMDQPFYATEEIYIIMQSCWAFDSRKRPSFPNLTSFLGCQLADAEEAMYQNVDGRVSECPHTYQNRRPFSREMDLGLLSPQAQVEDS
Method in brief: (§1)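 Isolated kinases, possibly truncated or lacking regulatory receptor regions, were preincubated with compound for 20 min at room temp in 20 mM Hepes pH 7.5, 10 mM MgCl2, 1 mM EGTA, 2 mM DTT, 1% DMSO. Reactions were started with ^33P-ATP and run 2 h at room temperature; activity was read by P81 filter binding.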

IRAK4 = molecular target: T2, IRAK4 (Homo sapiens, UniProt Q9NWZ3); assay: RBC HotSpot Kinase Assay, IRAK4; assay type: biochemical; parameters: purchased RBC (Reaction Biology) HotSpot assay; settings: HotSpot functional assay, isolated kinase enzyme, 33P-ATP
T2 sequence (Q9NWZ3 1-460): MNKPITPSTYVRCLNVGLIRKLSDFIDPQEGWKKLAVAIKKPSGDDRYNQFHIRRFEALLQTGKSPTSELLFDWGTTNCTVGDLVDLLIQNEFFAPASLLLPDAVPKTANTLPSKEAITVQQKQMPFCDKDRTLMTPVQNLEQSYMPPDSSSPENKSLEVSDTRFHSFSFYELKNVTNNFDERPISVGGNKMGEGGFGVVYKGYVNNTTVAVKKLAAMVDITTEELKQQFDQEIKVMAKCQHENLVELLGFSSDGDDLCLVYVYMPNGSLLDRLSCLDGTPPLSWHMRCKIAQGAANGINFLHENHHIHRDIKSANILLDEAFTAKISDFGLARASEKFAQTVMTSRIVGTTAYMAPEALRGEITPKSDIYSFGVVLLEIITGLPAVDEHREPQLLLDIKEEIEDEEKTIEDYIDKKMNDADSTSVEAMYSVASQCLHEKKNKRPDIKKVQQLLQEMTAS
Method in brief: as §1

IRAK1 = molecular target: T3, IRAK1 (Homo sapiens, UniProt P51617); assay: RBC HotSpot Kinase Assay, IRAK1; assay type: biochemical; settings: HotSpot functional assay, isolated kinase enzyme, 33P-ATP
T3 construct: purchased RBC (Reaction Biology) HotSpot assay
Method in brief: as §1

NF-κB = assay: NF-kB assay in THP-1-Blue NF-κB cells (SEAP reporter); assay type: cell-based
Method: THP-1-Blue NF-κB cells (InvivoGen) carrying a stable integrated NF-κB-inducible secreted embryonic alkaline phosphatase (SEAP) reporter construct were plated at a concentration of 1×10^5 cells per well. The cells were stimulated with Pam3CSK4 (1 ng/mL) or hIL1B (Ing/mL). After 10-20 minutes, the cells were then treated with vehicle (DMSO) or serial dilutions of the test compounds (10 doses tested for each test compound, with a 1:10 dilution series starting at 1 μM or 3 μM) with a final volume of 200 μL for 24 hours at 37° C. After 24 hours, the cells were centrifuged and 20 IL supernatant was incubated with 180 μL QUANTI-Blue reagent at 37° C. for 30-60 minutes. The levels of NF-κB-induced was measured in a microplate reader at 620 nm.

MOLM14 D835Y cells = assay: MOLM14 D835Y cell viability assay (Cell Titer Glo); assay type: cell-based; settings: Homo sapiens, MOLM-14, 48 h
Method: The cell line has activated FLT3 receptors which carry additional resistance mutations in the kinase domain (D835Y).
MOLM14 D835Y cells were grown in RPMI-1640 media supplemented with 20% fetal bovine serum (FBS). […] After cell addition, 23 nL of test compound were transferred into individual wells (22 doses tested for each test compound, with a 1:2 dilution series starting at 10 μM) via a 1536 pin-tool. Bortezomib (final concentration 2.3 μM) was used as a positive control for cell cytotoxicity.

[2] = THP-1-Blue NF-κB cells stimulated with Pam3CSK4, 24 hours, read-out: NF-κB Pam3SCK4 IC50
[3] = THP-1-Blue NF-κB cells stimulated with hIL1B, 24 hours, read-out: NF-κB IL1B IC50

T3 sequence (P51617 whole entry): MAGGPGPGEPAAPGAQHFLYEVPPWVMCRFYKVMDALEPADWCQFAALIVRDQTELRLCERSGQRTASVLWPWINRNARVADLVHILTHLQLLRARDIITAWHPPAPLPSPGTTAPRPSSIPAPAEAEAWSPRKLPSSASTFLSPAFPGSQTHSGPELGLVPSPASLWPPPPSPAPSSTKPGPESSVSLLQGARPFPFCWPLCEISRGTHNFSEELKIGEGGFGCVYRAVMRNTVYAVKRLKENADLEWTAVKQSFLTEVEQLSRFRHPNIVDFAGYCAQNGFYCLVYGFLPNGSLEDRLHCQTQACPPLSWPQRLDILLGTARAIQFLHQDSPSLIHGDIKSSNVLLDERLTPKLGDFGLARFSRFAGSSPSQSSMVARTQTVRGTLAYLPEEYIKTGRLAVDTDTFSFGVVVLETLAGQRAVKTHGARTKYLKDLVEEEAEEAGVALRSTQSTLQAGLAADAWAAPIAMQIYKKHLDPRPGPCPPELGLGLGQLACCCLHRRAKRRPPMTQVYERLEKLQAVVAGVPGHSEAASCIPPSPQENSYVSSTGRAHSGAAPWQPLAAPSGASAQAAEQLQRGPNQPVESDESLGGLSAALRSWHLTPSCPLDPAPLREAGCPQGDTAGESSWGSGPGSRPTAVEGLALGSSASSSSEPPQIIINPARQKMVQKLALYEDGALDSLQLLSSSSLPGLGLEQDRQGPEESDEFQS

## Nc1ncn([C@@H]2O[C@H](CO)[C@@H](O)[C@H]2O)c(=O)n1 [Compound 5-azacitdine, 5-azacitdine, reference compound]
[1]
  benefit of a third agent added to Compound 106 with venetoclax (apoptosis): little to no additional benefit

## COc1cc2ncc(-c3nc(N[C@@H]4CCCNC4)c(F)cc3F)n2nc1C1CC(C)(C)C1 [Compound 7a, (R)-6-(6-(3,3-dimethylcyclobutyl)-7-methoxyimidazo[1,2-b]pyridazin-3-yl)-3,5-difluoro-N-(piperidin-3-yl)pyridin-2-amine]
FLT3
  IC50: < 0.5 nM
IRAK4
  IC50: 13 nM
IRAK1
  IC50: 22 nM
NF-κB; [2]
  IC50: 2560 nM
NF-κB; [3]
  IC50: 2560 nM

## COc1cc2ncc(-c3ccc(C#N)c(N[C@@H]4CCCNC4)n3)n2nc1C1CC1 [Compound 28a, (R)-6-(6-cyclopropyl-7-methoxyimidazo[1,2-b]pyridazin-3-yl)-2-(piperidin-3-ylamino)nicotinonitrile]
FLT3
  IC50: < 0.5 nM
IRAK4
  IC50: 13 nM
IRAK1
  IC50: 836 nM
NF-κB; [2]
  IC50: 203 nM
NF-κB; [3]
  IC50: 481 nM

## COc1cc2ncc(-c3ccc(C#N)c(N[C@H]4CNCC[C@@H]4F)n3)n2nc1C1CC1 [Compound 29a, 6-(6-cyclopropyl-7-methoxyimidazo[1,2-b]pyridazin-3-yl)-2-(((3S,4S)-4-fluoropiperidin-3-yl)amino)nicotinonitrile]
FLT3
  IC50: < 0.5 nM
IRAK4
  IC50: < 0.5 nM
IRAK1
  IC50: 10 nM
NF-κB; [2]
  IC50: 66 nM
NF-κB; [3]
  IC50: 70 nM

## COc1cc2ncc(-c3nc(N[C@H]4CNC[C@@H]4F)ccc3F)n2nc1C1CC1 [Compound 45a, 6-(6-cyclopropyl-7-methoxyimidazo[1,2-b]pyridazin-3-yl)-5-fluoro-N-((3S,4S)-4-fluoropyrrolidin-3-yl)pyridin-2-amine]
FLT3
  IC50: < 0.5 nM
MOLM14 D835Y cells
  IC50: 20 nM
IRAK4
  IC50: < 0.5 nM
IRAK1
  IC50: 37 nM
NF-κB; [2]
  IC50: 44 nM
NF-κB; [3]
  IC50: 45 nM

## COc1cc2ncc(-c3ccc(F)c(N[C@H]4CNC[C@@H]4F)n3)n2nc1C1CC1 [Compound 46a, 6-(6-cyclopropyl-7-methoxyimidazo[1,2-b]pyridazin-3-yl)-3-fluoro-N-((3S,4S)-4-fluoropyrrolidin-3-yl)pyridin-2-amine]
FLT3
  IC50: < 0.5 nM
MOLM14 D835Y cells
  IC50: 115 nM
IRAK4
  IC50: < 0.5 nM
IRAK1
  IC50: 12 nM
NF-κB; [2]
  IC50: 59 nM
NF-κB; [3]
  IC50: 72 nM

## COc1cc2ncc(-c3nc(N[C@H]4CNCC[C@@H]4F)ccc3F)n2nc1C1CC1 [Compound 47a, 6-(6-cyclopropyl-7-methoxyimidazo[1,2-b]pyridazin-3-yl)-5-fluoro-N-((3S,4S)-4-fluoropiperidin-3-yl)pyridin-2-amine]
FLT3
  IC50: < 0.5 nM
MOLM14 D835Y cells
  IC50: 4 nM
IRAK4
  IC50: < 0.5 nM
IRAK1
  IC50: 6 nM
NF-κB; [2]
  IC50: 45 nM
NF-κB; [3]
  IC50: 95 nM

## COc1cc2ncc(-c3nc(N[C@@H]4CCCNC4)c(F)cc3F)n2nc1C12CC(C1)C2 [Compound 65a, (R)-6-(6-(bicyclo[1.1.1]pentan-1-yl)-7-methoxyimidazo[1,2-b]pyridazin-3-yl)-3,5-difluoro-N-(piperidin-3-yl)pyridin-2-amine]
FLT3
  IC50: < 0.5 nM
IRAK4
  IC50: 9 nM
IRAK1
  IC50: 18 nM
NF-κB; [2]
  IC50: 312 nM
NF-κB; [3]
  IC50: 410 nM

## COc1cc2ncc(-c3nc(N[C@H]4CNC[C@@H]4F)c(F)cc3F)n2nc1C1COC1 [Compound 71a, 3,5-difluoro-N-((3S,4S)-4-fluoropyrrolidin-3-yl)-6-(7-methoxy-6-(oxetan-3-yl)imidazo[1,2-b]pyridazin-3-yl)pyridin-2-amine]
FLT3
  IC50: < 0.5 nM
IRAK4
  IC50: 1 nM
IRAK1
  IC50: 50 nM
NF-κB; [2]
  IC50: 80 nM
NF-κB; [3]
  IC50: 97 nM

## COc1cc2ncc(-c3nc(N[C@H]4CNCC[C@@H]4F)c(F)cc3F)n2nc1C1CCO1 (stereo partly drawn) [Compound 74a, 3,5-difluoro-N-((3S,4S)-4-fluoropiperidin-3-yl)-6-(7-methoxy-6-(oxetan-2-yl)imidazo[1,2-b]pyridazin-3-yl)pyridin-2-amine]
FLT3
  IC50: < 0.5 nM
IRAK4
  IC50: 3 nM
IRAK1
  IC50: 59 nM
NF-κB; [2]
  IC50: 254 nM
NF-κB; [3]
  IC50: 345 nM

## Oc1cc2ncc(-c3nc(N[C@@H]4CCCNC4)c(F)cc3F)n2nc1C1CC1 [Compound 75a, (R)-6-cyclopropyl-3-(3,5-difluoro-6-(piperidin-3-ylamino)pyridin-2-yl)imidazo[1,2-b]pyridazin-7-ol]
FLT3
  IC50: 0.8 nM
IRAK4
  IC50: 34 nM
IRAK1
  IC50: 473 nM
NF-κB; [2]
  IC50: 1740 nM
NF-κB; [3]
  IC50: 2270 nM
